{"source": "patent US9623047B2", "about": "“Composition and method for improving gastrointestinal health of equine” (Photo Finish Supplements, LLC, priority 2012, dated 2017)", "origin": "cited, not measured here", "key": {"[1]": {"test_system": "tooth pulp and periapical tissue", "details": "protective barrier in dental repair and treatment"}}, "data": [{"smiles": "[Ca+2].[OH-].[OH-]", "note": "[Ca(OH)2, calcium hydroxide]", "values": [{"measurement": "anti-microbial action", "setting": "[1]", "value": "powerful anti-microbial action"}, {"measurement": "effect on regrowth of damaged tissue", "setting": "[1]", "value": "significant stimulatory effect"}, {"measurement": "DNA synthesis of tooth pulp cells", "setting": "tooth pulp cells", "value": "increase"}]}]}
